The values that follow are results of earlier work, collected in patent US5534537A, “Prodrugs of inhibitors of farnesyl-protein transferase” (Merck & Co., Inc., priority 1995, dated 1996).

The test system of this series is farnesyl-protein transferase. Particulars: via inhibition of HMG-CoA reductase, literature (Hancock et al.; Casey et al.; Schafer et al.).

In the case of `CC[C@H](C)C(=O)O[C@H]1CCC=C2C=C[C@H](C)[C@H](CC[C@@H]3C[C@@H](O)CC(=O)O3)[C@H]21` [compactin], the “Indirect inhibition of farnesyl-protein transferase in vivo” value is listed as “Indirect inhibition”. With `CC[C@H](C)C(=O)O[C@H]1C[C@@H](C)C=C2C=C[C@H](C)[C@H](CC[C@@H]3C[C@@H](O)CC(=O)O3)[C@H]21` [lovastatin], the “Indirect inhibition of farnesyl-protein transferase in vivo” value is reported as “Indirect inhibition”.
